In ChEMBL document CHEMBL4813981, “Synthesis and in vitro antibacterial activity of new aminothiazole-oximepiperidone cephalosporins” (2021):
Values after ≈ are worked out from the molar mass of the structure shown.

How the values were obtained:
Format in all cases: functional
Acinetobacter baumannii [1] = assay: Antibacterial activity against Multidrug resistant Acinetobacter baumannii AR 15-3 assessed as reduction in bacterial growth
Klebsiella pneumoniae [2] = assay: Antibacterial activity against Klebsiella pneumoniae ATCC 700603 assessed as reduction in bacterial growth
Escherichia coli [3] = assay: Antibacterial activity against Escherichia coli 15-4 overexpressing extended spectrum beta-lactamases assessed as reduction in bacterial growth
Escherichia coli [4] = assay: Antibacterial activity against Escherichia coli NCTC 13353 assessed as reduction in bacterial growth
Pseudomonas aeruginosa [5] = assay: Antibacterial activity against Pseudomonas aeruginosa ATCC 27853 assessed as reduction in bacterial growth
Acinetobacter baumannii [6] = assay: Antibacterial activity against Multidrug resistant Acinetobacter baumannii AR 15-4 assessed as reduction in bacterial growth
Escherichia coli [7] = assay: Antibacterial activity against Escherichia coli 15-3 overexpressing extended spectrum beta-lactamases assessed as reduction in bacterial growth
Acinetobacter baumannii [8] = assay: Antibacterial activity against Acinetobacter baumannii NCTC 13304 assessed as reduction in bacterial growth
Enterococcus faecalis [9] = assay: Antibacterial activity against Enterococcus faecalis ATCC 51299 assessed as reduction in bacterial growth
Klebsiella pneumoniae [10] = assay: Antibacterial activity against Multidrug resistant Klebsiella pneumoniae KR 15-3 assessed as reduction in bacterial growth
Klebsiella pneumoniae [11] = assay: Antibacterial activity against Klebsiella pneumoniae ATCC BAA-1705 assessed as reduction in bacterial growth
Klebsiella pneumoniae [12] = assay: Antibacterial activity against Multidrug resistant Klebsiella pneumoniae KR 15-1 assessed as reduction in bacterial growth
Escherichia coli [13] = assay: Antibacterial activity against Escherichia coli 15-5 overexpressing extended spectrum beta-lactamases assessed as reduction in bacterial growth
Escherichia coli [14] = assay: Antibacterial activity against Escherichia coli ATCC 35218 assessed as reduction in bacterial growth
Klebsiella pneumoniae [15] = assay: Antibacterial activity against Multidrug resistant Klebsiella pneumoniae KR 15-2 assessed as reduction in bacterial growth
Acinetobacter baumannii [16] = assay: Antibacterial activity against Multidrug resistant Acinetobacter baumannii AR 15-2 assessed as reduction in bacterial growth
Escherichia coli [17] = assay: Antibacterial activity against Escherichia coli ATCC 25922 assessed as reduction in bacterial growth
Klebsiella pneumoniae [18] = assay: Antibacterial activity against Klebsiella pneumoniae ATCC BAA-1705 assessed as reduction in bacterial growth in the presence of Avibactam
Klebsiella pneumoniae [19] = assay: Antibacterial activity against Multidrug resistant Klebsiella pneumoniae KR 15-3 assessed as reduction in bacterial growth in the presence of Avibactam
Klebsiella pneumoniae [20] = assay: Antibacterial activity against Multidrug resistant Klebsiella pneumoniae KR 15-1 assessed as reduction in bacterial growth in the presence of Avibactam
Acinetobacter baumannii [21] = assay: Antibacterial activity against Acinetobacter baumannii NCTC 13304 assessed as reduction in bacterial growth in the presence of Avibactam
Enterococcus faecalis [22] = assay: Antibacterial activity against Enterococcus faecalis ATCC 51299 assessed as reduction in bacterial growth in the presence of Avibactam
Acinetobacter baumannii [23] = assay: Antibacterial activity against Multidrug resistant Acinetobacter baumannii AR 15-2 assessed as reduction in bacterial growth in the presence of Avibactam
Escherichia coli [24] = assay: Antibacterial activity against Escherichia coli 15-5 overexpressing extended spectrum beta-lactamases assessed as reduction in bacterial growth in the presence of Avibactam
Escherichia coli [25] = assay: Antibacterial activity against Escherichia coli 15-3 overexpressing extended spectrum beta-lactamases assessed as reduction in bacterial growth in the presence of Avibactam
Klebsiella pneumoniae [26] = assay: Antibacterial activity against Klebsiella pneumoniae ATCC 700603 assessed as reduction in bacterial growth in the presence of Avibactam
Escherichia coli [27] = assay: Antibacterial activity against Escherichia coli ATCC 35218 assessed as reduction in bacterial growth in the presence of Avibactam
Escherichia coli [28] = assay: Antibacterial activity against Escherichia coli ATCC 25922 assessed as reduction in bacterial growth in the presence of Avibactam
Acinetobacter baumannii [29] = assay: Antibacterial activity against Multidrug resistant Acinetobacter baumannii AR 15-4 assessed as reduction in bacterial growth in the presence of Avibactam
Escherichia coli [30] = assay: Antibacterial activity against Escherichia coli NCTC 13353 assessed as reduction in bacterial growth in the presence of Avibactam
Acinetobacter baumannii [31] = assay: Antibacterial activity against Multidrug resistant Acinetobacter baumannii AR 15-3 assessed as reduction in bacterial growth in the presence of Avibactam
Klebsiella pneumoniae [32] = assay: Antibacterial activity against Multidrug resistant Klebsiella pneumoniae KR 15-2 assessed as reduction in bacterial growth in the presence of Avibactam
Pseudomonas aeruginosa [33] = assay: Antibacterial activity against Pseudomonas aeruginosa ATCC 27853 assessed as reduction in bacterial growth in the presence of Avibactam
Escherichia coli [34] = assay: Antibacterial activity against Escherichia coli 15-4 overexpressing extended spectrum beta-lactamases assessed as reduction in bacterial growth in the presence of Avibactam

## COCC1=C(C(=O)O)N2C(=O)[C@@H](NC(=O)/C(=N\OCc3cc(=O)c(O)cn3O)c3csc(N)n3)[C@H]2SC1
Acinetobacter baumannii [1]
  MIC: > 64 µg/mL
Klebsiella pneumoniae [2]
  MIC: 64 µg/mL (≈ 116 µM)
Escherichia coli [3]
  MIC: > 64 µg/mL
Escherichia coli [4]
  MIC: > 64 µg/mL
Pseudomonas aeruginosa [5]
  MIC: 2 µg/mL (≈ 3.62 µM)
Acinetobacter baumannii [6]
  MIC: > 64 µg/mL
Escherichia coli [7]
  MIC: > 64 µg/mL
Acinetobacter baumannii [8]
  MIC: > 64 µg/mL
Enterococcus faecalis [9]
  MIC: > 64 µg/mL
Klebsiella pneumoniae [10]
  MIC: > 64 µg/mL
Klebsiella pneumoniae [11]
  MIC: > 64 µg/mL
Klebsiella pneumoniae [12]
  MIC: > 64 µg/mL
Escherichia coli [13]
  MIC: > 64 µg/mL
Escherichia coli [14]
  MIC: 0.25 µg/mL (≈ 0.452 µM)
Klebsiella pneumoniae [15]
  MIC: > 64 µg/mL
Acinetobacter baumannii [16]
  MIC: > 64 µg/mL
Escherichia coli [17]
  MIC: 2 µg/mL (≈ 3.62 µM)

## Nc1nc(/C(=N/OCc2cc(=O)c(O)cn2O)C(=O)N[C@@H]2C(=O)N3C(C(=O)O)=C(Cl)CS[C@H]23)cs1
Acinetobacter baumannii [1]
  MIC: > 64 µg/mL
Klebsiella pneumoniae [2]
  MIC: > 64 µg/mL
Klebsiella pneumoniae [18]
  MIC: 8 µg/mL
Escherichia coli [3]
  MIC: > 64 µg/mL
Escherichia coli [4]
  MIC: > 64 µg/mL
Pseudomonas aeruginosa [5]
  MIC: 4 µg/mL (≈ 7.37 µM)
Acinetobacter baumannii [6]
  MIC: > 64 µg/mL
Klebsiella pneumoniae [19]
  MIC: 1 µg/mL
Klebsiella pneumoniae [20]
  MIC: 2 µg/mL
Escherichia coli [7]
  MIC: > 64 µg/mL
Acinetobacter baumannii [21]
  MIC: 32 µg/mL
Enterococcus faecalis [22]
  MIC: > 64 µg/mL
Acinetobacter baumannii [23]
  MIC: 16 µg/mL
Escherichia coli [24]
  MIC: 0.5 µg/mL
Escherichia coli [25]
  MIC: 1 µg/mL
Acinetobacter baumannii [8]
  MIC: > 64 µg/mL
Enterococcus faecalis [9]
  MIC: > 64 µg/mL
Klebsiella pneumoniae [26]
  MIC: > 64 µg/mL
Klebsiella pneumoniae [10]
  MIC: > 64 µg/mL
Klebsiella pneumoniae [11]
  MIC: > 64 µg/mL
Escherichia coli [27]
  MIC: 0.125 µg/mL
Klebsiella pneumoniae [12]
  MIC: > 64 µg/mL
Escherichia coli [13]
  MIC: > 64 µg/mL
Escherichia coli [14]
  MIC: 0.5 µg/mL (≈ 0.921 µM)
Escherichia coli [28]
  MIC: 0.125 µg/mL
Acinetobacter baumannii [29]
  MIC: 8 µg/mL
Escherichia coli [30]
  MIC: 1 µg/mL
Acinetobacter baumannii [31]
  MIC: 8 µg/mL
Klebsiella pneumoniae [15]
  MIC: > 64 µg/mL
Acinetobacter baumannii [16]
  MIC: > 64 µg/mL
Klebsiella pneumoniae [32]
  MIC: 1 µg/mL
Escherichia coli [17]
  MIC: 2 µg/mL (≈ 3.68 µM)
Pseudomonas aeruginosa [33]
  MIC: 1 µg/mL
Escherichia coli [34]
  MIC: 1 µg/mL

## C/C=C/C1=C(C(=O)O)N2C(=O)[C@@H](NC(=O)/C(=N\OCc3cc(=O)c(O)cn3O)c3csc(N)n3)[C@H]2SC1
Acinetobacter baumannii [1]
  MIC: > 64 µg/mL
Klebsiella pneumoniae [2]
  MIC: 64 µg/mL (≈ 117 µM)
Escherichia coli [3]
  MIC: > 64 µg/mL
Escherichia coli [4]
  MIC: > 64 µg/mL
Pseudomonas aeruginosa [5]
  MIC: 16 µg/mL (≈ 29.2 µM)
Acinetobacter baumannii [6]
  MIC: > 64 µg/mL
Escherichia coli [7]
  MIC: > 64 µg/mL
Acinetobacter baumannii [8]
  MIC: > 64 µg/mL
Enterococcus faecalis [9]
  MIC: > 64 µg/mL
Klebsiella pneumoniae [10]
  MIC: > 64 µg/mL
Klebsiella pneumoniae [11]
  MIC: 64 µg/mL (≈ 117 µM)
Klebsiella pneumoniae [12]
  MIC: > 64 µg/mL
Escherichia coli [13]
  MIC: > 64 µg/mL
Escherichia coli [14]
  MIC: 1 µg/mL (≈ 1.82 µM)
Klebsiella pneumoniae [15]
  MIC: > 64 µg/mL
Acinetobacter baumannii [16]
  MIC: > 64 µg/mL
Escherichia coli [17]
  MIC: 1 µg/mL (≈ 1.82 µM)
